Laboratory results reported in patent publication US9890133B2 (priority 2011, dated 2018).
Values after ≈ are worked out from the molar mass of the structure shown.

How the values were obtained:
Poliovirus 3 = test: microbe, parasite or virus in culture; assay type: cell-based; conditions: Enterovirus C, read-out: Poliovirus3 EC50
in vitro = conditions: human

| Compound | EC50 (Poliovirus 3) | CC50 (in vitro) | CC50 (in vitro; Picorana CC50) |
| --- | --- | --- | --- |
| Cc1cccc(C(=O)NC23C(=O)c4c(N)cccc4C2(O)Oc2cc(C(C)C)ccc23)c1 (centres unmarked) [Example 187, N-(1-Amino-4b-hydroxy-7-isopropyl-10-oxo-9b,10-dihydro-4bH-benzo[d]indeno[1,2-b]furan-9b-yl)-3-methylbenzamide] | < 0.01 µg/mL | > 10 µg/mL | 7.43 µg/mL (≈ 17.3 µM) |
| CC(C)c1ccc2c(c1)OC1(O)c3cccc(N)c3C(=O)C21NC(=O)c1cncc(F)c1 (centres unmarked) [Example 255, N-(1-Amino-4b-hydroxy-7-isopropyl-10-oxo-9b,10-dihydro-4bH-indeno[1,2-b]benzofuran-9b-yl)-5-fluoronicotinamide] | < 0.01 µg/mL | > 10 µg/mL |  |
| CC(C)c1ccc2c(c1)OC1(O)c3cccc(N)c3C(=O)C21NC(=O)c1nc2ccccc2[nH]1 (centres unmarked) [Example 290, N-(1-Amino-4b-hydroxy-7-isopropyl-10-oxo-9b,10-dihydro-4bH-indeno[1,2-b]benzofuran-9b-yl)-1H-benzo[d]imidazole-2-carboxamide] | 0.032 µg/mL (≈ 0.0704 µM) | 4.51 µg/mL (≈ 9.92 µM) | 4.32 µg/mL (≈ 9.51 µM) |
| CC(C)c1ccc2c(c1)OC1(O)c3cccc(N)c3C(=O)C21NC(=O)c1n[nH]cc1[N+](=O)[O-] (centres unmarked) [Example 242, N-(1-Amino-4b-hydroxy-7-isopropyl-10-oxo-9b,10-dihydro-4bH-benzo[d]indeno[1,2-b]furan-9b-yl)-4-nitro-1H-pyrazole-3-carboxamide] | < 0.01 µg/mL | > 10 µg/mL | 8.55 µg/mL (≈ 19 µM) |
| CC(C)c1ccc2c(c1)OC1(O)c3cccc(N)c3C(=O)C21NC(=O)c1ccccc1 (centres unmarked) [Example 153, N-(1-Amino-4b-hydroxy-7-isopropyl-10-oxo-9b,10-dihydro-4bH-indeno[1,2-b]benzofuran-9b-yl)benzamide] | < 0.01 µg/mL | 16 µg/mL (≈ 38.7 µM) | 9.02 µg/mL (≈ 21.8 µM) |
| CC(C)c1ccc2c(c1)OC1(O)c3cccc(N)c3C(=O)C21NC(=O)c1nccc2ccccc12 (centres unmarked) [Example 266, N-(1-Amino-4b-hydroxy-7-isopropyl-10-oxo-9b,10-dihydro-4bH-benzo[d]indeno[1,2-b]furan-9b-yl)isoquinoline-1-carboxamide] | < 0.01 µg/mL | > 10 µg/mL | 6.41 µg/mL (≈ 13.8 µM) |
| CC(C)c1ccc2c(c1)OC1(O)c3cccc(N)c3C(=O)C21NC(=O)c1n[nH]c2ccccc12 (centres unmarked) [Example 212, N-(1-Amino-4b-hydroxy-7-isopropyl-10-oxo-9b,10-dihydro-4bH-benzo[d]indeno[1,2-b]furan-9b-yl)-1H-indazole-3-carboxamide] | < 0.01 µg/mL | > 10 µg/mL |  |
| CC(C)c1ccc2c(c1)OC1(O)c3cccc(N)c3C(=O)C21NC(=O)c1cc(C(F)(F)F)ccn1 (centres unmarked) [Example 244, N-(1-Amino-4b-hydroxy-7-isopropyl-10-oxo-9b,10-dihydro-4bH-benzo[d]indeno[1,2-b]furan-9b-yl)-4-(trifluoromethyl)picolinamide] | < 0.01 µg/mL | > 10 µg/mL | 15.7 µg/mL (≈ 32.5 µM) |
| CC(C)c1ccc2c(c1)OC1(O)c3cccc(N)c3C(=O)C21NC(=O)C(=O)c1cccs1 (centres unmarked) [Example 231, N-(1-Amino4b-hydroxy-7-isopropyl-10-oxo-9b,10-dihydro-4bH-indeno[1,2-b]benzofuran-9b-yl)-2-oxo-2-(thiophen-2-yl)acetamide] | < 0.01 µg/mL | > 10 µg/mL | 8.64 µg/mL (≈ 19.3 µM) |
| CC(C)c1ccc2c(c1)OC1(O)c3cccc(N)c3C(=O)C21NC(=O)c1cc2ccccc2[nH]1 (centres unmarked) [Example 265] | < 0.01 µg/mL | 4.4 µg/mL (≈ 9.7 µM) | 4.75 µg/mL (≈ 10.5 µM) |
| CCC(=O)NC12C(=O)c3c(N)cccc3C1(O)Oc1cc(C(C)C)ccc12 (centres unmarked) [Example 143, N-(1-Amino-4b-hydroxy-7-isopropyl-10-oxo-9b,10-dihydro-4bH-indeno[1,2-b]benzofuran-9b-yl)propionamide] | < 0.01 µg/mL | 58.1 µg/mL (≈ 158 µM) | > 50 µg/mL |
| CCOC(=O)OC12Oc3cc(C(C)C)ccc3C1(NC(C)=O)C(=O)c1c(N)cccc12 (centres unmarked) [Example 123, 9b-Acetamido-1-amino-7-isopropyl-10-oxo-9b,10-dihydro-4bH-benzo[d]indeno[1,2-b]furan-4b-yl ethyl carbonate] | < 0.01 µg/mL | 43.4 µg/mL (≈ 102 µM) | 37.5 µg/mL (≈ 88.4 µM) |
| CC(C)c1ccc2c(c1)OC1(O)c3cccc(N)c3C(=O)C21NC(=O)c1ccc2ccccc2n1 (centres unmarked) [Example 263] | 0.039 µg/mL (≈ 0.0838 µM) | 5.4 µg/mL (≈ 11.6 µM) | 7.65 µg/mL (≈ 16.4 µM) |
| CC(C)c1ccc2c(c1)OC1(O)c3cccc(N)c3C(=O)C21NC(=O)c1ccncc1 (centres unmarked) [Example 199, N-(1-Amino-4b-hydroxy-7-isopropyl-10-oxo-9b,10-dihydro-4bH-indeno[1,2-b]benzofuran-9b-yl)isonicotinamide] | < 0.01 µg/mL | 43 µg/mL (≈ 103 µM) | 48.3 µg/mL (≈ 116 µM) |
| CCCCC(=O)NC12C(=O)c3c(N)cccc3C1(OC(=O)CCCC)Oc1cc(C(C)C)ccc12 (centres unmarked) [Example 96, 1-Amino-7-isopropyl-10-oxo-9b-pentanamido-9b,10-dihydro-4bH-benzo[d]indeno[1,2-b]furan-4b-yl pentanoate] | 0.016 µg/mL (≈ 0.0334 µM) | 24 µg/mL (≈ 50.1 µM) | > 50 µg/mL |
| CC(C)c1ccc2c(c1)OC1(O)c3cccc(N)c3C(=O)C21NC(=O)c1ccnc2ccccc12 (centres unmarked) [Example 215, N-(1-Amino-4b-hydroxy-7-isopropyl-10-oxo-9b,10-dihydro-4bH-indeno[1,2-b]benzofuran-9b-yl)quinoline-4-carboxamide] | < 0.01 µg/mL | > 10 µg/mL |  |
| CC(C)c1ccc2c(c1)OC1(O)c3cccc(N)c3C(=O)C21NC(=O)c1ccccn1 (centres unmarked) [Example 197, N-(1-Amino-4b-hydroxy-7-isopropyl-10-oxo-9b,10-dihydro-4bH-indeno[1,2-b]benzofuran-9b-yl)picolinamide] | < 0.01 µg/mL | 16 µg/mL (≈ 38.6 µM) | 34.5 µg/mL (≈ 82.9 µM) |
| CC(C)c1ccc2c(c1)OC1(O)c3ccccc3C(=O)C21NC(=O)c1ccc([N+](=O)[O-])s1 (centres unmarked) [Example 223, N-(4b-hydroxy-7-isopropyl-10-oxo-9b,10-dihydro-4bH-benzo[d]indeno[1,2-b]furan-9b-yl)-5-nitrothiophene-2-carboxamide] | < 0.01 µg/mL | 4.36 µg/mL (≈ 9.68 µM) | 7.46 µg/mL (≈ 16.6 µM) |
| Cc1ccccc1C(=O)NC12C(=O)c3c(N)cccc3C1(O)Oc1cc(C(C)C)ccc12 (centres unmarked) [Example 186, N-(1-Amino-4b-hydroxy-7-isopropyl-10-oxo-9b,10-dihydro-4bH-benzo[d]indeno[1,2-b]furan-9b-yl)-2-methylbenzamide] | 0.026 µg/mL (≈ 0.0607 µM) | > 10 µg/mL | 8.31 µg/mL (≈ 19.4 µM) |
| CC(C)c1ccc2c(c1)OC1(O)c3cccc(N)c3C(=O)C21NC(=O)c1cnnc2ccccc12 (centres unmarked) [Example 238, N-(1-Amino-4b-hydroxy-7-isopropyl-10-oxo-9b,10-dihydro-4bH-benzo[d]indeno[1,2-b]furan-9b-yl)cinnoline-4-carboxamide] | < 0.01 µg/mL | > 10 µg/mL | 8.33 µg/mL (≈ 17.9 µM) |
| CCCC(=O)NC12C(=O)c3c(N)cccc3C1(O)Oc1cc(C(C)C)ccc12 (centres unmarked) [Example 144, N-(1-Amino-4b-hydroxy-7-isopropyl-10-oxo-9b,10-dihydro-4bH-indeno[1,2-b]benzofuran-9b-yl) butyramide] | < 0.01 µg/mL | 21.7 µg/mL (≈ 57.1 µM) | 35.5 µg/mL (≈ 93.3 µM) |
| CC(C)c1ccc2c(c1)OC1(O)c3cccc(N)c3C(=O)C21NC(=O)c1cccc[n+]1[O-] (centres unmarked) [Example 253, 2-((1-Amino-4b-hydroxy-7-isopropyl-10-oxo-9b,10-dihydro-4bH-indeno[1,2-b]benzofuran-9b-yl)carbamoyl)pyridine 1-oxide] | < 0.01 µg/mL | > 10 µg/mL |  |
